Test results from patent US7485755B2, “Acid addition salt of carbasugar amine derivative” (Seikagaku Corporation, priority 2003, dated 2009).

Key:
[1] = target: T1, bovine sperm-derived β-D-galactosidase (Bos taurus, UniProt Q58D55); test: Measurement of acidic β-galactosidase inhibitory activity (4-methylumbelliferyl substrate, fluorescence); type: biochemical; conditions: 0.2 M acetate buffer pH 4.4, 25° C., 30 minutes; read-out: 50% Inhibition concentration (IC50 value)
T1 construct: bovine sperm-derived β-D-galactosidase (manufactured by Signa); purchased Sigma; host or cells: bovine sperm (tissue-derived)
T1 sequence (Q58D55 28-653): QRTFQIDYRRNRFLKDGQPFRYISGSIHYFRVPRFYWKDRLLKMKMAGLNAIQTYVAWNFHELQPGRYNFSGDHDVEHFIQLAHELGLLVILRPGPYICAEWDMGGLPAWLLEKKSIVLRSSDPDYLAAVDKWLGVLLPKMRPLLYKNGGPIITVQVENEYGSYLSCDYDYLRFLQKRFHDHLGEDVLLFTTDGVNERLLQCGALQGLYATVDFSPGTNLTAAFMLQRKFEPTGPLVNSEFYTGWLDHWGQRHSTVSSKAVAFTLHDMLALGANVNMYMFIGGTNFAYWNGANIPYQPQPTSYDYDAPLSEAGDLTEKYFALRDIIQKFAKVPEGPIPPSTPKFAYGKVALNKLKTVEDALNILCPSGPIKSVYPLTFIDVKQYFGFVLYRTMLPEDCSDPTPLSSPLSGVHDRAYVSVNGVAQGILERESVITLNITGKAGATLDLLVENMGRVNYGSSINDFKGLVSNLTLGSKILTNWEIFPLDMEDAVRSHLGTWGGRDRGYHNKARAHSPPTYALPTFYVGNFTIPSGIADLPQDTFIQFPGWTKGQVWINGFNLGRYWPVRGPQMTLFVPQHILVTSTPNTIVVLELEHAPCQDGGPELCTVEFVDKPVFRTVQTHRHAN
Description: Each of Substances A-2 to 7 of the invention dissolved in water for injection, to which DMSO had been added and dissolved therein, if necessary, was diluted with a 0.2 M acetate buffer (pH 4.4) to give a concentration of 0.05, 0.125, 0.25, 0.5, 1.0, 2.5 or 5.0 μM and added at 25 μl into a 96 well microplate. Then, a 0.2 M acetate buffer (pH 4.4) solution of bovine sperm-derived β-D-galactosidase (manufactured by Signa) was added at 25 μl, and 4-methylumbelliferyl-β-D-galactopyranoside (10 μM) was further added as a fluorescence substrate at 50 μl, followed by incubation at 25° C. for 30 minutes. Then, the reaction was stopped by adding 100 μl of 2 M Na2CO3, and an amount of 4-methylumbelliferone released by the enzyme reaction (fluorescence intensity) was measured (excitation wavelength 355 nm, measuring wavelength 460 nm) by a fluorescence reader (product name; ARVOSX manufactured by WALLAC). An amount of the 4-methylumbelliferone released at the time of not adding the inhibitor was defined as 100%, and quantitative change in the 4-methylumbelliferone formed by addition of each substance to be evaluated was relatively evaluated. In addition, as the 50% inhibition concentration (IC50 value), the concentration of each substance of the invention which reduces 50% of the concentration of 4-methylumbelliferone at the time of un-adding each substance of the invention was calculated from an inhibition curve.

[2] = Solubility test in distilled water; type: physicochemical; conditions: thermodynamic from solid

| Compound | IC50 [1] | solubility ([2]; 19° C., distilled water added to 5.4 mg of sample) | solubility ([2]; distilled water, water, 24° C.) |
| --- | --- | --- | --- |
| CCCCCCCCNC1C=C(CO)C(O)C(O)C1O (stereo not shown) [Substance B-2] |  | > 108 mg/mL |  |
| CCCCCCCCCCCCCCCCCCN[C@@H]1C=C(CO)[C@H](O)[C@H](O)[C@H]1O [Substance A-6] | 1790 nM |  |  |
| CCCCCCCCN[C@@H]1C=C(CO)[C@H](O)[C@H](O)[C@H]1O [Substance A-2] | 476 nM |  | ≥ 300 mg/mL |

Now from value to compound:

| IC50 [1] | solubility ([2]; 19° C., distilled water added to 5.4 mg of sample) | solubility ([2]; distilled water, water, 24° C.) | Compound |
| --- | --- | --- | --- |
| 301 nM |  |  | CCCCCCCCCCN[C@@H]1C=C(CO)[C@H](O)[C@H](O)[C@H]1O [Substance A-3] |
| 2690 nM |  |  | CCCCCCCCCCCCCCN[C@@H]1C=C(CO)[C@H](O)[C@H](O)[C@H]1O [Substance A-5] |
| 1430 nM |  |  | CCCCCCCCCCCCN[C@@H]1C=C(CO)[C@H](O)[C@H](O)[C@H]1O [Substance A-4] |
